Experimental data: publication PMC5979965, “Structure-based discovery of mPGES-1 inhibitors suitable for preclinical testing in wild-type mice as a new generation of anti-inflammatory drugs” (Scientific Reports, 2018)
Like-named read-outs stand apart in the source and are kept apart here.

Legend:
human mPGES-1 = molecular target: T1, human mPGES-1 (Homo sapiens, UniProt O14684); test: Activity assay using recombinant human mPGES-1 (PGE2 enzyme immunoassay); format: biochemical
T1 construct: made in house; host or cells: FreeStyle 293-F cells, mPGES-1/pcDNA3 construct, crude microsomal preparation
T1 sequence (O14684 1-152): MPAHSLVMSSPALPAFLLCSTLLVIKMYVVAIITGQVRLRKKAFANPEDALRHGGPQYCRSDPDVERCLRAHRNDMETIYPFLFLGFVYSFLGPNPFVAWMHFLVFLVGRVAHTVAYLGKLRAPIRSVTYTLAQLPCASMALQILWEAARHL
Method: (§1) Our protocols for the protein preparation and in vitro activity assays were the same as described in previous reports[39],[41]–[43]. […] For the structure-activity relationship (SAR), we first investigated the impact of substitution on the central benzene ring on the inhibitory potency. […] The length of the alkoxy side chain was also inspected in compounds 4b and 6.
Purity was determined by HPLC (Waters 1525 Binary HPLC pump, Waters 2487 Dual λ Absorbance Detector, and Waters 717plus Autosampler, Milford, MA) at λ of […] using acetonitrile and 0.1% […]
TFA (70:30) as mobile phase.
(§2) 3. In vitro experimental tests
(§3) Preparation of mPGES-1 enzymes. Cloning of mPGES-1 and the protein preparation were described in our previous reports.15 Briefly, FreeStyle Max Expression system was used to express wild -type human and mouse mPGES-1 enzymes separately. FreeStyle 293-F cells were cultured following manufacturer’s manual in FreeStyle 293 expression medium on orbit rotate shaker in 8% CO 2 incubator at 37 °C. Cells were transfected with 1.5 µg/mL of mPGES-1/pcDNA3 construct using FreeStyle Max reagent at a cell density of 1 × 106 for 2 days. Transfected cells were collected, washed, and sonicated in TSES buffer (15 mM Tris-HCl, pH 8.0 plus 0.25 M sucrose, 0.1 mM EDTA and 1 mM DTT) on ice. The broken cells were first centrifuged at 12,500 × g for 10 min. The supernatant was further centrifuged at 105,000 × g for 1 hr at 4 °C. The pellet was washed and homogenized in PBS buffer. The crude microsomal mPGES -1 preparations were aliquoted and stored at -80 °C before use.
(§4) PGH2 (stored in dry ice). […] After 1
(§5) Following the formation of […]

mouse mPGES-1 [1] = molecular target: T2, mouse mPGES-1 (Mus musculus, UniProt Q9JM51); test: Activity assay using recombinant mouse mPGES-1 (PGE2 enzyme immunoassay); format: biochemical
T2 construct: made in house; host or cells: FreeStyle 293-F cells, mPGES-1/pcDNA3 construct, crude microsomal preparation
T2 sequence (Q9JM51 1-153): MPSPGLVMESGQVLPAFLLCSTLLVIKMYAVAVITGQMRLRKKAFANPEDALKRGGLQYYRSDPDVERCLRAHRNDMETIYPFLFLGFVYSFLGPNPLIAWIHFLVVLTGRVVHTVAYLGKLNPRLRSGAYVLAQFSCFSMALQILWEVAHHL
Excerpt: as §1, with “The central benzene rings of 4i was originated from salicylaldehydes with chlorine substituted on 5-position. […] The” for “The”
as §2, §3, §4, §5

mice [2] = test: Acute toxicity/safety testing in mice after PO administration
Method: (§6) Animals. Wild-type CD-1 mice (28-35 g) were ordered from Harlan (Indianapolis, IN), and housed
(§7) for a week prior to the experimental studies. All animals were allowed ad libitum access to food and water
(§8) and maintained on a 12 h light/12 h dark cycle, with the lights on at 8:00 am at a room temperature of 21–
(§9) 22 °C. Experiments were performed in a same colony room in accordance with the Guide for the Care and
(§10) Use of Laboratory Animals as adopted and promulgated by the National Institutes of Health. The animal
(§11) protocol was approved by the IACUC (Institutional Animal Care and Use Committee) at the University
(§12) Preparation of pictures during acute toxicity testing. Mice were divided into three groups and
(§13) treated with oral administration of a single dose of vehicle (Wesson vegetable oil, Memphis, TN), 4b (250
(§14) mg/mL in Wesson vegetable oil at the dose of 1 g/kg), and celecoxib (12.5 mg/mL in Wesson vegetable

PGE2 levels in kidney = test: Wild-type mice based air-pouch model of inflammation (carrageenan), PGE2 by ELISA; conditions: for PGE2 levels in mice (kidney): 24 hours, vs vehicle
mouse mPGES-1 [3] = molecular target: T2, mouse mPGES-1; conditions: cited from earlier work
rat enzyme (mPGES-1) = conditions: cited from earlier work
mice [4] = conditions: mouse, in vivo, po, 50 mg/kg
Method: as §6, §7, §8, §9, §10, §11, §12, §13, §14

[5] = IC50 (nM) against mPGES-1, Mouse mPGES-1, Mean ± SD of measurements in triplicate

O=C1NC(=O)C(=Cc2ccc(OCCCCC3CCCCC3)c(Cl)c2)C(=O)N1 [Compound 4b]
IC50 (human mPGES-1): 33 ± 3 nM | IC50 (mouse mPGES-1 [1]; [5]): 157 ± 31 nM | bleeding spots on the inner side of stomach samples (mice [2]; 24 hr after PO, 1 g/kg in oil): did not find any bleeding spot | toxic signs in mice (mice [2]; PO, high dose up to 1 g/kg, observation for 14 days): did not cause any toxic sign | PGE2 levels in mice (kidney) (PGE2 levels in kidney; PO, 5 mg/kg single dose): significantly decreased | PGE2 levels in mice (kidney) (PGE2 levels in kidney; PO, 10 mg/kg single dose): significantly decreased | PGE2 levels in mice (kidney) (PGE2 levels in kidney; SC, 0.1 mg/kg single dose): significantly decreased | PGE2 levels in mice (kidney) (PGE2 levels in kidney; SC, 1 mg/kg single dose): significantly decreased | PGE2 levels in mice (kidney) (PGE2 levels in kidney; SC, 10 mg/kg single dose): significantly decreased | oral bioavailability (PGE2 levels in kidney; inferred from PO activity in mice): orally bioavailable

O=C1NC(=O)C(=Cc2cc(Cl)ccc2OCCCCC2CCCCC2)C(=O)N1 [Compound 4i]
IC50 (human mPGES-1): 87 ± 27 nM | IC50 (mouse mPGES-1 [1]; [5]): 19100 ± 3490 nM | IC50 (mouse mPGES-1 [1]; IC50 against the mouse enzyme): > 10000 nM

O=C1NC(=O)C(=Cc2ccc(OCCCC3CCCCC3)c(Cl)c2)C(=O)N1 [Compound 6]
IC50 (human mPGES-1): 69 ± 16 nM | IC50 (mouse mPGES-1 [1]; [5]): 292 ± 47 nM

N#Cc1cccc(C#N)c1-c1nc2c3ccc(Cl)cc3c3ccccc3c2[nH]1 [MF63, 2-(6-chloro-1H-phenanthro[9,10-d]imidazol-2-yl)-isophthalonitrile]
inhibition against mouse mPGES-1 at 10 µM (mouse mPGES-1 [1]; 10 µM): no significant inhibition | activity against the mouse enzyme, previously reported (mouse mPGES-1 [3]): without significant activity | activity against the rat enzyme, previously reported (rat enzyme (mPGES-1)): without significant activity

CC(C)c1ccc2c(c1)c(SC(C)(C)C)c(CC(C)(C)C(=O)O)n2Cc1ccc(Cl)cc1 [MK-886, reference compound]
inhibition of mouse mPGES-1 (mouse mPGES-1 [1]; concentration not given): without significant inhibition

Cc1ccc(-c2cc(C(F)(F)F)nn2-c2ccc(S(N)(=O)=O)cc2)cc1 [celecoxib]
bleeding spots on the inner side of stomach samples (mice [4]): at least one bleeding spot | finding at gastric mucosa (mice [4]): bleeding ulcer was observed | toxicity in mice (mice [4]): very toxic for stomach and other issues of mice
